# Patent publication US20230025537A1, “MIXTURE COMPRISING HYDROGENATED SOYBEAN OIL AND THYMOL” (DSM IP Assets B.V., priority 2019, published 2023)
# Like-named read-outs stand apart in the source and are kept apart here.
# Experiments:
# [1] = system: E. coli K88+; experiment: MIC by two-fold broth dilution method; format: cell-based; conditions: Escherichia coli, 24 h, read-out: MIC values, Escheria coli K88^+
# [2] = system: S. choleraesuis; experiment: MIC by two-fold broth dilution method; format: cell-based; conditions: Salmonella enterica, 24 h, read-out: MIC values, Salmonella choleraesius
# [3] = system: Cl. perfringens; experiment: microbe, parasite or virus in culture; format: cell-based; conditions: Clostridium perfringens, 24 h, read-out: MIC values, Clostrisium perfringens
# [4] = system: E. coli K88+; format: cell-based, Escherichia coli K88+; conditions: individually
SMILES,MIC [1],MIC [2],MIC [3],Lag phase (λ) ([4]; dosage 0.25 mmol/L),Lag phase (λ) ([4]; dosage 0.5 mmol/L)
"C=CCc1ccc(O)c(OC)c1 [Eugenol, eugenol]",2500 µM,2500 µM,4000 µM,1.77,1.91
"Cc1ccc(C(C)C)c(O)c1 [Thymol, thymol]",1500 µM,1000 µM,1000 µM,1.66,1.65
